Source: ChEMBL document CHEMBL1201862, “PubChem BioAssay data set” (2004)
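Test compounds were applied to cells in 96-well plates for 48 hours at 5 doses. GI50 = concentration required for 50% inhibition of growth.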 Active and inactive are the calls of the source. Cut-off read from the data, not from the text of the source: active = GI50 up to about 1.1 µM and inactive = higher. Non-standard residues stand in square brackets, D forms with d. Residues, ends and D or L forms follow the SMILES beside them. *: point of attachment. Bn2Val = CC(C)[C@@H](C(=O)*)N(Cc1ccccc1)Cc1ccccc1; NMeV = CN[C@H](C(=O)O)C(C)C; X32 = COc1ccc(CN*)c(OC)c1; dNMeA = CN[C@H](C)C(=O)O

Legend:
Assay in all cases: inhibition of tumour cell growth, NCI panel, 48 h
A549 = tested on: A549
786-0 = tested on: 786-0
NCI/ADR-RES = tested on: NCI/ADR-RES
PC-3 = tested on: PC-3
NCI-H460 = tested on: NCI-H460
CCRF-CEM = tested on: CCRF-CEM
MDA-MB-231 = tested on: MDA-MB-231
Hs-578T = tested on: Hs-578T
MDA-N = tested on: MDA-N
RPMI-8226 = tested on: RPMI-8226
MCF7 = tested on: MCF7
HL-60 = tested on: HL-60
A498 = tested on: A498
NCI-H522 = tested on: NCI-H522
NCI-H23 = tested on: NCI-H23
UACC-257 = tested on: UACC-257
ACHN = tested on: ACHN
SNB-19 = tested on: SNB-19
M14 = tested on: M14
SK-MEL-2 = tested on: SK-MEL-2

| SMILES | GI50 (A549) | GI50 (786-0) | GI50 (NCI/ADR-RES) | GI50 (PC-3) | GI50 (NCI-H460) | GI50 (CCRF-CEM) | GI50 (MDA-MB-231) | GI50 (Hs-578T) | GI50 (MDA-N) | GI50 (RPMI-8226) | GI50 (MCF7) | GI50 (HL-60) | GI50 (A498) | GI50 (NCI-H522) | GI50 (NCI-H23) | GI50 (UACC-257) | GI50 (ACHN) | GI50 (SNB-19) | GI50 (M14) | GI50 (SK-MEL-2) |
| --- | --- | --- | --- | --- | --- | --- | --- | --- | --- | --- | --- | --- | --- | --- | --- | --- | --- | --- | --- | --- |
| COC(=O)c1ccc(Oc2nc3ccc(C(F)(F)F)cc3nc2-c2ccccc2)cc1 | > 100 µM (inactive) | > 100 µM (inactive) | > 100 µM (inactive) | > 100 µM (inactive) | 83.2 µM (inactive) | > 100 µM (inactive) | > 100 µM (inactive) | > 100 µM (inactive) | > 100 µM (inactive) | 62.8 µM (inactive) | 24.9 µM (inactive) | > 100 µM (inactive) | > 100 µM (inactive) | 94.6 µM (inactive) | > 100 µM (inactive) | > 100 µM (inactive) | 56.9 µM (inactive) | – | – | – |
| CCOc1ccc2nc3nc(O)nc(C)c3c(NCCCN(CC)CC)c2c1 | > 100 µM (inactive) | > 100 µM (inactive) | > 100 µM (inactive) | > 100 µM (inactive) | > 100 µM (inactive) | > 100 µM (inactive) | > 100 µM (inactive) | > 100 µM (inactive) | > 100 µM (inactive) | – | > 100 µM (inactive) | > 100 µM (inactive) | > 100 µM (inactive) | > 100 µM (inactive) | > 100 µM (inactive) | > 100 µM (inactive) | > 100 µM (inactive) | > 100 µM (inactive) | > 100 µM (inactive) | > 100 µM (inactive) |
| CCc1n[nH]c(=O)n1NC(=O)/C=C\C(=O)O | > 100 µM (inactive) | > 100 µM (inactive) | > 100 µM (inactive) | > 100 µM (inactive) | > 100 µM (inactive) | > 100 µM (inactive) | > 100 µM (inactive) | > 100 µM (inactive) | > 100 µM (inactive) | – | > 100 µM (inactive) | > 100 µM (inactive) | > 100 µM (inactive) | > 100 µM (inactive) | > 100 µM (inactive) | > 100 µM (inactive) | – | – | > 100 µM (inactive) | > 100 µM (inactive) |
| CCCCCCCCCCCC1=C(O)C(=O)C(CC2=C(O)C(=O)C(CCCCCCCCCCC)=C(O)C2=O)=C(O)C1=O | > 100 µM (inactive) | 59.6 µM (inactive) | > 100 µM (inactive) | > 100 µM (inactive) | > 100 µM (inactive) | 21.2 µM (inactive) | 28.6 µM (inactive) | 22.8 µM (inactive) | > 100 µM (inactive) | – | > 100 µM (inactive) | > 10 µM (inactive) | 52.2 µM (inactive) | 40.6 µM (inactive) | 54.6 µM (inactive) | > 100 µM (inactive) | 76 µM (inactive) | 21.1 µM (inactive) | > 100 µM (inactive) | > 100 µM (inactive) |
| CC(=O)O[C@H]1C(=O)O[C@@H]2C[C@H]3C(C)=CC(=O)[C@@H](O)[C@]3(C)[C@H]3[C@@]4(O)OC[C@]32[C@@H]1[C@@H](C)[C@H]4O | – | 0.0238 µM (active) | 2.21 µM (inactive) | 0.02 µM (active) | – | 0.0328 µM (active) | 0.0475 µM (active) | 0.0175 µM (active) | 0.0211 µM (active) | 0.0286 µM (active) | 0.0294 µM (active) | 0.0229 µM (active) | 0.103 µM (active) | 0.0243 µM (active) | 0.0268 µM (active) | 0.0395 µM (active) | 0.0317 µM (active) | – | 0.0219 µM (active) | 0.0611 µM (active) |
| c1ccc2c(c1)-c1ccccc1C2NC1=NCCO1 | 32.4 µM (inactive) | 28.1 µM (inactive) | 23.4 µM (inactive) | 20.5 µM (inactive) | 14 µM (inactive) | 32.6 µM (inactive) | 24.3 µM (inactive) | 55 µM (inactive) | 11.8 µM (inactive) | 28.4 µM (inactive) | 22.5 µM (inactive) | 26.5 µM (inactive) | 18.2 µM (inactive) | 25.6 µM (inactive) | 34.1 µM (inactive) | – | 28.8 µM (inactive) | 36.6 µM (inactive) | 17.2 µM (inactive) | 18.8 µM (inactive) |
| CCCCCCCCCCCCC/C=C(/COCC[N+](C)(C)C)OC(C)=O.CCCCCCCCCCCCCC/C(=C/OCC[N+](C)(C)C)OC(C)=O | 1.71 µM (inactive) | 1.08 µM (active) | 17.6 µM (inactive) | 2.08 µM (inactive) | 0.63 µM (active) | 1.76 µM (inactive) | 1.78 µM (inactive) | 1.91 µM (inactive) | 3.07 µM (inactive) | 1.3 µM (inactive) | 1.9 µM (inactive) | 1.64 µM (inactive) | 2.49 µM (inactive) | 1.87 µM (inactive) | 1.9 µM (inactive) | 2.99 µM (inactive) | 1.65 µM (inactive) | 1.47 µM (inactive) | 2.5 µM (inactive) | – |
| COc1ccc(CNC(=O)[C@@H]2CCCN2C(=O)[C@@H](C)N(C)C(=O)[C@H](C(C)C)N(C)C(=O)[C@@H](NC(=O)[C@H](C(C)C)N(Cc2ccccc2)Cc2ccccc2)C(C)C)c(OC)c1 (Bn2Val-V[NMeV][dNMeA]P-X32) | 3.77 µM (inactive) | 3.28 µM (inactive) | 2.97 µM (inactive) | 2.9 µM (inactive) | 3.52 µM (inactive) | – | 1.51 µM (inactive) | 7.53 µM (inactive) | 2.35 µM (inactive) | 2.67 µM (inactive) | 3.19 µM (inactive) | 0.0561 µM (active) | 2.96 µM (inactive) | 3.56 µM (inactive) | 2.94 µM (inactive) | 3.44 µM (inactive) | 3.75 µM (inactive) | 3.4 µM (inactive) | 2.84 µM (inactive) | 1.77 µM (inactive) |
| CC12O[C@]3([C@H](C(=O)N4CCOC43C)[C@H]1Cl)[C@H]1O[C@H]12 (stereo not given in full) | > 100 µM (inactive) | > 100 µM (inactive) | > 100 µM (inactive) | > 100 µM (inactive) | > 100 µM (inactive) | – | > 100 µM (inactive) | > 100 µM (inactive) | > 100 µM (inactive) | 94.8 µM (inactive) | > 100 µM (inactive) | > 100 µM (inactive) | > 100 µM (inactive) | > 100 µM (inactive) | – | > 100 µM (inactive) | > 100 µM (inactive) | > 100 µM (inactive) | > 100 µM (inactive) | > 100 µM (inactive) |
| CS(=O)(=O)Nc1ccc2c(c1)N(S(C)(=O)=O)CC2COS(C)(=O)=O (stereo not given) | > 100 µM (inactive) | 31 µM (inactive) | > 100 µM (inactive) | > 100 µM (inactive) | 90.8 µM (inactive) | 35.8 µM (inactive) | > 100 µM (inactive) | 94.2 µM (inactive) | > 100 µM (inactive) | 25.8 µM (inactive) | > 10 µM (inactive) | 25.2 µM (inactive) | 85.9 µM (inactive) | 19.7 µM (inactive) | 45.1 µM (inactive) | > 100 µM (inactive) | 35.7 µM (inactive) | – | – | 19.9 µM (inactive) |
| O=C(O)c1ccccc1NC(=S)c1ccccc1 | 51.3 µM (inactive) | 47.4 µM (inactive) | 51.1 µM (inactive) | 34.5 µM (inactive) | 53.2 µM (inactive) | 45.5 µM (inactive) | 60.5 µM (inactive) | 53.7 µM (inactive) | 38.7 µM (inactive) | 28.2 µM (inactive) | 31.3 µM (inactive) | 34 µM (inactive) | 61.9 µM (inactive) | 13.5 µM (inactive) | 80.9 µM (inactive) | 29.7 µM (inactive) | 24.7 µM (inactive) | 48.5 µM (inactive) | 70.5 µM (inactive) | – |
| Cc1nc(O)c2c3c(sc2n1)CCCC3 | 78.5 µM (inactive) | 35.9 µM (inactive) | > 100 µM (inactive) | > 100 µM (inactive) | 0.284 µM (active) | – | > 100 µM (inactive) | > 100 µM (inactive) | 87.7 µM (inactive) | 84.9 µM (inactive) | 41.4 µM (inactive) | > 100 µM (inactive) | > 100 µM (inactive) | > 100 µM (inactive) | > 100 µM (inactive) | > 100 µM (inactive) | 54.5 µM (inactive) | > 100 µM (inactive) | > 100 µM (inactive) | > 100 µM (inactive) |
| C=C(c1ccccc1)C1ON(C)CCc2cc(OC)c(OC)cc21 (stereo not given) | > 100 µM (inactive) | > 100 µM (inactive) | 48.4 µM (inactive) | > 100 µM (inactive) | > 100 µM (inactive) | > 100 µM (inactive) | 53.6 µM (inactive) | 18.3 µM (inactive) | > 100 µM (inactive) | > 100 µM (inactive) | 0.256 µM (active) | > 100 µM (inactive) | > 100 µM (inactive) | 56.4 µM (inactive) | 66.2 µM (inactive) | 42.3 µM (inactive) | 84.7 µM (inactive) | > 100 µM (inactive) | > 100 µM (inactive) | – |
| CC(=O)c1c(O)cc(O)c(-c2c(C)cc(O)c3c2C(=O)c2cccc(O)c2C3=O)c1O | 14.6 µM (inactive) | 17.1 µM (inactive) | 15.8 µM (inactive) | 11 µM (inactive) | 15 µM (inactive) | – | 25.1 µM (inactive) | 7.48 µM (inactive) | 16 µM (inactive) | 7.76 µM (inactive) | 14.8 µM (inactive) | 23.2 µM (inactive) | 15.6 µM (inactive) | 10 µM (inactive) | – | 19.9 µM (inactive) | 12.9 µM (inactive) | 21 µM (inactive) | 20.3 µM (inactive) | 15.9 µM (inactive) |
| Cc1ccnc2c1ccc1nc3ccccc3n12 | > 100 µM (inactive) | 52.6 µM (inactive) | 37.8 µM (inactive) | > 100 µM (inactive) | 45.6 µM (inactive) | > 100 µM (inactive) | 54.7 µM (inactive) | 25.8 µM (inactive) | > 100 µM (inactive) | > 100 µM (inactive) | 4.45 µM (inactive) | 85.3 µM (inactive) | > 100 µM (inactive) | 17.9 µM (inactive) | > 100 µM (inactive) | > 100 µM (inactive) | – | – | > 100 µM (inactive) | > 100 µM (inactive) |
